According to patent publication US9974745B2, “Encochleation methods, cochleates and methods of use” (RUTGERS, THE STATE UNIVERSITY OF NEW JERSEY, priority 2003, dated 2018):

Key:
[1] = HPLC stability of TY in cochleates versus free TY in solution; format: physicochemical
From the text: HPLC was used to study the stability of the TY in the cochleates, by measuring the concentration of TY in TY-cochleates as compared to free, i.e., unencochleated TY in solution.

SKOV3 cells = assay: Interaction of ZnTPP-cochleates with SKOV3 cells, confocal fluorescence; format: cell-based
From the text: Phase contrast light microscopy and confocal microscopy (Olympus) was used to image liposomal suspensions, cochleates and cells, with and without the aid of fluorescence, which can be used, e.g., to study cellular uptake and intracellular distribution of fluorescently labeled cochleates and cargo moieties. Confocal microscopy is particularly advantageous as it is a 3-dimensional digital imaging device that can be used to effectively view slices of cell culture. This allows verification of the presence of cochleate and other agents within a cell.
In order to study any interaction of the cochleates with cells, ZnTPP-cochleates and free ZnTPP (in solution with DMSO) were introduced to SKOV3 cell cultures, and imaged with fluorescence under a confocal microscope.
Cochleates were prepared with and without ZnTPP as described above, except that prior to introduction of the ZnTPP/solvent, liposomes were formed with 1% diolyl phosphatidylethanolamine (DOPE) liganded to pyrene (purchased Avanti). The DOPE was incorporated into the soy PS liposomes by dissolving both DOPE and lipid in solvent, drying the solvent to a film, and using an aqueous solution to form liposomes. Confocal images were taken at 1 and 24 hours after introduction to SKOV3 cells to study the uptake and any difference in the cellular distribution of cochleate/lipid and the ZnTPP. […]

stomachs of rats = assay: Gastric irritation (bleeding and ulcerations) in rats; format: in vivo, rat; details: stomachs examined 4 hours post carrageenan injection; samples 2, 3, 7 and 9
Experimental: A carrageenan model was employed to study the effect of anti-inflammatory cochleates on edema in rat paws. Various aspirin cochleates of the invention were used to treat carrageenan-induced rat paw edema. […] Additionally, rats in all groups were examined for gastric irritation.
Samples 6-10 were prepared in accordance with Example 16, except that the lipid:aspirin molar ratio was 5:1 and soy PS was used instead of DOPS. Samples 4, 5, and 11 were prepared in a similar manner in the absence of a cargo moiety. In all cases, water was used in lieu of TES buffer. All samples were given by oral gavage at 1 hour prior to injection of carrageenan on Day 0 in a volume of 3 mL of 0.5% methylcellulose. […] Volumes of rat paw (in ml) were measured prior to carrageenan injection using a semi-automated plethysmograph (Buxco). At 0 time, 0.1 ml of 1% carrageenan in 0.9% pyrogen free saline was injected into the right hind paw of the rat. The paw volumes (in ml) were measured again 3 hours post carrageenan injection to determine inhibition of paw edema. Four rats from each of groups 2, 3, 6, 7, 8, 9 and 10 and one rat from each of groups 1, 4, 5 and 11 were bled (intravenously, jugular vein, approximately 1 ml blood) at 30 minutes and 4 hours post drug administration. Blood was collected in heparinized vacutainers. […]

For `COc1cc(/C=C(\C#N)C(N)=O)cc(CSc2nc3ccccc3s2)c1O` [free TY, Tyrphostin AG-825], the “concentration of degradation products (impurity 1 and impurity 2) over time” value [1] was “degraded over time” and the “TY concentration over time (stability)” value ([1]; cochleates versus free TY in solution) was “decreased to zero”.
For `C1=Cc2nc1c(-c1ccccc1)c1ccc([n-]1)c(-c1ccccc1)c1nc(c(-c3ccccc3)c3ccc([n-]3)c2-c2ccccc2)C=C1.[Zn+2]` [free ZnTPP, Zinc Tetra-Phenyl Porphyrin], the “degradation of ZnTPP in SKOV3 cell culture” value (SKOV3 cells; at 24 hours) was “significant degradation” and the “uptake by SKOV3 cells” value (SKOV3 cells; confocal fluorescence images at 1 hour and 24 hours) was “high uptake”.
For `COc1ccc2c(c1)c(CC(=O)O)c(C)n2C(=O)c1ccc(Cl)cc1` [indomethacin], the “incidence and level of severity of gastric irritation” value (stomachs of rats) was “greatest gastric irritation”.
With `CC(=O)Oc1ccccc1C(=O)O` [unencochleated aspirin, aspirin] the “incidence and level of severity of gastric irritation” value (stomachs of rats) was “greatest gastric irritation, followed by unencochleated aspirin”.
